We go through three molecules from patent US11337968B2, “Phenylquinoline compositions for treatment of ocular disorders and conditions” (The Board of Regents of the University of Oklahoma, priority 2016, dated 2022).

Each structure is given as a SMILES string. Entries after “also recorded” stand apart in the source; their conditions may differ.

The target in test [1] is T1, PPARα (Homo sapiens, UniProt Q07869).
T1 sequence (Q07869 1-468): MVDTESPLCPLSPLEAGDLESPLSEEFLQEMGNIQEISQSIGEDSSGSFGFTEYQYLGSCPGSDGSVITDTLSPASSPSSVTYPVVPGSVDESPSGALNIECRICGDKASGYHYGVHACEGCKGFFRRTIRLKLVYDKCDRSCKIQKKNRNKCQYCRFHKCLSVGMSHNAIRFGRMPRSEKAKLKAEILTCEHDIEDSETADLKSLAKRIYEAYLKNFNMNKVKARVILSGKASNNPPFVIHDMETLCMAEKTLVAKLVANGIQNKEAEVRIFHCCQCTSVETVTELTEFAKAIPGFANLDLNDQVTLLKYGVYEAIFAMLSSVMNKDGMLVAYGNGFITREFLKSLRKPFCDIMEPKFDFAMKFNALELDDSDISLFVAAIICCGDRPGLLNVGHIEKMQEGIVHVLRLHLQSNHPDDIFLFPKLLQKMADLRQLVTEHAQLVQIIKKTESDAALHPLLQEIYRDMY
Kind of test: PPARα transcriptional activity in PPARα reporter Combo cells (luciferase). Type of test: cell-based. Set-up: host or cells: PPARα reporter Combo cells. Conditions: for PPARα transcriptional activity (luciferase), FIG. 1 and 2: 50 μM, PPARα reporter Combo cells; for PPARα transcriptional activity (luciferase), FIG. 1 and 2 / dose dependent effect on PPARα transcriptional activity, FIG. 3: 36 h; for dose dependent effect on PPARα transcriptional activity, FIG. 3: various concentrations up to 100 μM. As for the experimental part: The PPARα reporter Combo cells were treated with the indicated compounds at concentrations of 50 μM for 36 h, and then luciferase activities were measured.
The PPARα reporter Combo cells were treated with indicated compounds at concentrations of 50 μM for 36 h, and then luciferase activities were measured.
Various phenylquinoline derivatives of the present disclosure were tested for their effects on PPARα transcriptional activity in PPARα reporter Combo cells, including NCI8 and compounds 1-13 as disclosed herein, as measured against the effect of Feno-FA.
Cells were treated with various compounds at concentrations of 50 μM for 36 h, after which luciferase activities were measured. […] Cells were treated with various compounds at concentrations of 50 μM for 36 h, after which luciferase activities were measured. […] The experiments were repeated as various increasing concentrations comparing the effects of Feno-FA (FIG. 4), NCI8 (FIG. 5), compound 2 (FIG. 6), and compound 8 (FIG. 7).

For another test, the system named is retinal leukostasis. Kind of test: leukostasis assay in oxygen-induced retinopathy (OIR) model. Conditions: OIR mice, 10 mg/kg/day i.p. P12 to P16, examined at P17, vs vehicle. Type of test: in vivo, C57BL/6 mice.
In test [2] the test system is human retinal Müller cells (MIO-M1). The test can be described thus: TUNEL, palmitate-induced apoptosis in Müller cells. In kind it is cell-based.
The test system of another test is ICAM-1, MCP-1, TNF-α. Kind of test: retinal levels of inflammatory factors by Western blotting in OIR model. Type of test: in vivo, C57BL/6 mice. Conditions: OIR mice, 10 mg/kg/day i.p. P12 to P16, Western blotting. (Immunoblotting shows a protein as a band on a membrane.)
In the next test the test system is ARPE19 cells. The test can be described thus: palmitate-induced cell death in ARPE19 cells. Type of test: cell-based.
In test [3] the target is T1, PPARα. Kind of test: luciferase-based promoter assay of PPARα activation.
Experimental: The activation of PPARα by NCI8 was measured by luciferase-based promoter assay. […] Student's T-test was used for statistical analysis.
The test system of test [4] is human retinal capillary endothelial cells (HRCEC). Kind of test: endothelial cell migration in HRCEC. In kind it is cell-based.
For test [5], the system named is retinal precursor cells (R28). The test can be described thus: TUNEL, palmitate-induced apoptosis in retinal precursor cells. Type of test: cell-based.
The test system of test [6] is human retinal capillary endothelial cells (HRCEC). Kind of test: tube formation in HRCEC. In kind it is cell-based.
Test [7] relates to retinal capillaries and pericytes. Kind of test: retinal capillary degeneration and pericyte loss in streptozotocin-induced diabetic rats. In kind it is in vivo. Conditions: i.p., 10 mg/kg/day, 3 weeks.
The subject of a further test is VEGF. The test can be described thus: expression of VEGF. Particulars: potency similar to or higher than fenofibrate.

One may read the EC50 as the concentration needed to bring the measured effect to its halfway point. Read a low EC50 as a more potent agent.

For `O=C(O)c1cc(-c2ccccc2O)nc2ccccc12` [Compound 8, 2-(2-hydroxyphenyl) quinoline-4-carboxylic acid], at PPARα [1], the “PPARα transcriptional activity (luciferase), FIG. 1 and 2” value is on record as “highest agonistic activity”; the “dose dependent effect on PPARα transcriptional activity, FIG. 3” value was “greatest activity”.
Take `COc1ccc(-c2cc(C(=O)O)c3ccccc3n2)cc1OC` [Compound 2, 2-(3,4-dimethoxyphenyl) quinoline-4-carboxylic acid]: at PPARα [1], the “PPARα transcriptional activity (luciferase), FIG. 1 and 2” value is on record as “highest agonistic activity”; the “dose dependent effect on PPARα transcriptional activity, FIG. 3” value is “greatest activity”. In addition, the “PPARα transcriptional activity at various increasing concentrations, FIG. 4-7” value at PPARα [1] (compared with Feno-FA, NCI8, compound 8) is on record as “greatest agonistic activity”.
Regarding `Cc1c(Cl)ccc2c(C(=O)O)cc(-c3ccccc3)nc12` [NCI8, 7-chloro-8-methyl-2-phenylquinoline-4-carboxylic acid], in the test on retinal leukostasis, the “number of adherent leukocytes in the retinal vasculature (retinal leukostasis)” value was “decreased; also recorded: significantly reduced”. The “palmitate-induced apoptosis of human retinal Müller cells” value in [2] is given as “protective effect”. In the test with ICAM-1, MCP-1, TNF-α, the “retinal level of ICAM-1” value is recorded as “downregulated; also recorded: significantly down-regulated”, the “retinal level of MCP-1” value is on record as “downregulated; also recorded: significantly down-regulated” and the “retinal level of TNF-α” value was “downregulated; also recorded: significantly down-regulated”. Moreover, the “RPE cell death induced by palmitate” value with ARPE19 cells is listed as “protection of RPE cells from cell death”. The molecule further came in with an EC50 on PPARα [3] of 49.9 µM. The PPARα transcriptional activity result on PPARα [3] (luciferase-based promoter assay) is listed as “activated PPARα transcriptional activity in a concentration-dependent manner; also recorded: Potent effects in enhancing transcriptional activities of PPARα”. Besides, in test [4], the HRCEC migration entry is recorded as “significantly inhibited” and the “concentration range of concentration-dependent inhibition of endothelial cell migration” value was in the range of 50 to 200 µM. In addition, in test [5], the “palmitate-induced apoptosis of retinal precursor cells” value is on record as “protective effect”. In addition, the HRCEC tube formation result in test [6] is reported as “significantly inhibited; also recorded: higher potency than fenofibric acid”. In addition, the “pericyte loss (pericyte numbers)” value in [7] (diabetic rats) was “ameliorated; also recorded: significantly increased”. Further, in test [7] (streptozotocin-induced diabetic rats), the “retinal capillary degeneration (numbers of acellular capillaries in the retina)” value is “ameliorated; also recorded: decreased”. For the same molecule, in the test with VEGF, the “expression of VEGF” value is recorded as “inhibited”.
